Residue numbers refer to the chain shown, from its start.
How the values were obtained:
F493A mutant hTRPV6 = molecular target: T1, F493A mutant hTRPV6 (Homo sapiens, UniProt Q9H1D0, F533A); experiment: Fura-2 AM Ca2+ uptake, F493A mutant hTRPV6; type: cell-based
T1 construct: Full-length wild-type or mutant human TRPV6 was expressed in HEK 293S cells as described above; expressed in transfected cells; host or cells: HEK 293S GnTI- (baculovirus/BacMam transduction)
T1 sequence (Q9H1D0 41-765 F533A limits assumed): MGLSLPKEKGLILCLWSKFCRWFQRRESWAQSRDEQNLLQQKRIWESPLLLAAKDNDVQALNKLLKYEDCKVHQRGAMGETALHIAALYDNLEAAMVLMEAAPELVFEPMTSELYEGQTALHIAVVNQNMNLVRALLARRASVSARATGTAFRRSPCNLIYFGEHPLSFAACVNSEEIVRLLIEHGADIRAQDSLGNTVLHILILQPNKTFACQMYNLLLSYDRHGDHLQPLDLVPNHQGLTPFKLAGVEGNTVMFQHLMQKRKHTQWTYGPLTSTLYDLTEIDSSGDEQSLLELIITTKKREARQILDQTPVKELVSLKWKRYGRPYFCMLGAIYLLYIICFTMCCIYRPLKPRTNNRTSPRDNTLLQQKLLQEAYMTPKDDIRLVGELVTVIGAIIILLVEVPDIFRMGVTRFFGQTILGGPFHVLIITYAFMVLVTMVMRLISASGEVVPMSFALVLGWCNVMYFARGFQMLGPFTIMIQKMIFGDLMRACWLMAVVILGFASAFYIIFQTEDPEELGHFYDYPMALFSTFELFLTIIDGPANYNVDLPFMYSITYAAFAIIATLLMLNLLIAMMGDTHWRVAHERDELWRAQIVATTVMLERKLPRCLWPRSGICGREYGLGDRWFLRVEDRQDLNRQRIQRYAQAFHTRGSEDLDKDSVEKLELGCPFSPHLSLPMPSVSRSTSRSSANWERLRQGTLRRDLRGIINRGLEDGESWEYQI

T567A mutant hTRPV6 = molecular target: T2, T567A mutant hTRPV6 (Homo sapiens, UniProt Q9H1D0, T607A); experiment: Fura-2 AM Ca2+ uptake, T567A mutant hTRPV6; type: cell-based
T2 construct: Full-length wild-type or mutant human TRPV6 was expressed in HEK 293S cells as described above; expressed in transfected cells; host or cells: HEK 293S GnTI- (baculovirus/BacMam transduction)
T2 sequence (Q9H1D0 41-765 T607A limits assumed): T1 sequence (Q9H1D0 41-765 F533A limits assumed) with A493F, T567A

L568Q mutant hTRPV6 = molecular target: T3, L568Q mutant hTRPV6 (Homo sapiens, UniProt Q9H1D0, L608Q); experiment: Fura-2 AM Ca2+ uptake, L568Q mutant hTRPV6; type: cell-based
T3 construct: Full-length wild-type or mutant human TRPV6 was expressed in HEK 293S cells as described above; expressed in transfected cells; host or cells: HEK 293S GnTI- (baculovirus/BacMam transduction)
T3 sequence (Q9H1D0 41-765 L608Q limits assumed): T1 sequence (Q9H1D0 41-765 F533A limits assumed) with A493F, L568Q

TRPV5 = tested on: TRPV5; design: method as in PMID 28535500; details: rat model for osteoarthritis; cited from earlier work

For `CCCc1cc(O)c2c(c1)OC(C)(C)[C@@H]1CCC(C)=C[C@@H]21` [THCV, tetrahydrocannabivarin], the IC50 (F493A mutant hTRPV6) was 2.7 ± 0.23 µM, the “fraction of uninhibited channels” value (F493A mutant hTRPV6; F493A, high THCV concentration) was ~ 20% and the IC50 (T567A mutant hTRPV6) was 12 ± 0.7 µM. The “change in F340/F380 evoked by 10 mM Ca2+” value (T567A mutant hTRPV6; 1 μM THCV, replicates) was 1.267, the IC50 (L568Q mutant hTRPV6) was 62.1 ± 18.2 µM and the “effect on joint destruction” value (TRPV5) was “slow the progression of joint destruction”.

— PMC10397291, “Molecular pathway and structural mechanism of human oncochannel TRPV6 inhibition by the phytocannabinoid tetrahydrocannabivarin” (Nature Communications, 2023)
